Reference: patent US20040224958A1, “Pyridopyrimidinone derivatives for treatment of neurodegenerative disease” (priority 2000, published 2004)

How the values were obtained:
[1] = biological target: cdc2/cyclinB (Homo sapiens, UniProt P06493); assay: Cyclin-Dependent Kinase Assay cdc2/cyclinB
[2] = biological target: cdk2/cyclinA (Homo sapiens, UniProt P24941); assay: Cyclin-Dependent Kinase Assay cdk2/cyclinA; settings: cdk2/A IC50
[3] = biological target: cdk2/cyclinE (Homo sapiens, UniProt P24941); assay: Cyclin-Dependent Kinase Assay cdk2/cyclinE; settings: cdk2/E IC50
[4] = biological target: cdk4/D (Homo sapiens, UniProt P11802); assay: Cyclin-Dependent Kinase 4 (cdk4) Assay; assay type: biochemical; settings: read-out: cdk4/D IC50
cdk4/D, sequence (P11802 whole entry): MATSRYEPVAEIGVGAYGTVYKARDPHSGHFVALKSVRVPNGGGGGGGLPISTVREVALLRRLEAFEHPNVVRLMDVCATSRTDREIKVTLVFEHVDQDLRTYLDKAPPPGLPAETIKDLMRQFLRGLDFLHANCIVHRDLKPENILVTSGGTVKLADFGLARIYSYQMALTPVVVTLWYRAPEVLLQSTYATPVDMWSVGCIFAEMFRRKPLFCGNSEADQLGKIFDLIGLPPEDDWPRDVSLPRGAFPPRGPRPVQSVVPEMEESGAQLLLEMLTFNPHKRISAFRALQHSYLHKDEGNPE
cdk4/D, sequence (P24385 whole entry, further chain): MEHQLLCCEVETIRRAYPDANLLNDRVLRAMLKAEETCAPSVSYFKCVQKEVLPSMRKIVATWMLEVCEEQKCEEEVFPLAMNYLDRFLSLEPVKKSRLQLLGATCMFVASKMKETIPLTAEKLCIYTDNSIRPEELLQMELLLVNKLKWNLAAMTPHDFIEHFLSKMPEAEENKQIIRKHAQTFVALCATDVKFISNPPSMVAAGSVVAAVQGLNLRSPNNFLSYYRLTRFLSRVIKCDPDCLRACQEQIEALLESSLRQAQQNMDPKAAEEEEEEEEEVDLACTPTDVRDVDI

[5] = biological target: Cdk5/p25 (Homo sapiens, UniProt Q00535); assay: Cyclin-Dependent Kinase 5 High Throughput Screening (cdk5-HTS) Assay; assay type: biochemical; settings: high throughput screen
Procedure, shortened: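 IC50 determined from 33P incorporation into GST-RbCOOH captured on glutathione plates and read by scintillation counting. Reaction: 1.0 μg/mL Cdk5/p25, 20 μM [γ33P]ATP, pH 7.4 Tris buffer with MgCl2 and DTT, 30 min at room temperature, stopped with EDTA.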

cdc2/cyclinB, sequence (P06493 whole entry): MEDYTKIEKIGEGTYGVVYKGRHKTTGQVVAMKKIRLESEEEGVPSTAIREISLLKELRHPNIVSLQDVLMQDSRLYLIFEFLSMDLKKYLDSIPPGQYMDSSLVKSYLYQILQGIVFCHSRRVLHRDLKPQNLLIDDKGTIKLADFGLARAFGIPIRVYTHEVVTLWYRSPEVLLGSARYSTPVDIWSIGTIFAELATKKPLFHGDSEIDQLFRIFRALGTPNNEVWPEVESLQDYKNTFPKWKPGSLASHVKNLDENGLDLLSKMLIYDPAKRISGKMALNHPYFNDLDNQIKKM
cdc2/cyclinB, sequence (P14635 whole entry, further chain): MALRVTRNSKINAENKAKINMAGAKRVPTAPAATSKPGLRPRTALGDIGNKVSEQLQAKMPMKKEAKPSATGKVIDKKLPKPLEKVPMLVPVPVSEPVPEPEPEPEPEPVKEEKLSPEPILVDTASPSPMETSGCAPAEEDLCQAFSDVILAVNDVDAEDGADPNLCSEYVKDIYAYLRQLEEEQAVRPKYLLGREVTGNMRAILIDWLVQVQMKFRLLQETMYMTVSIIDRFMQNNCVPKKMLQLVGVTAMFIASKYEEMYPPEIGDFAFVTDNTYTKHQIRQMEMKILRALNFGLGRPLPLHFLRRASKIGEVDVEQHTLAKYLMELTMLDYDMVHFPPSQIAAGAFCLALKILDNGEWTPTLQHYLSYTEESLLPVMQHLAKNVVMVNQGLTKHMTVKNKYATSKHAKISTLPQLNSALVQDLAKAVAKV

| Compound | IC50 [1] | IC50 [2] | IC50 [3] | IC50 [4] | IC50 [5] |
| --- | --- | --- | --- | --- | --- |
| O=c1ccc2cnc(Nc3ccc(O)c(Cl)c3)nc2n1CC(F)(F)F [Example 597, 2-(3-Chloro-4-hydroxy-phenylamino)-8-(2,2,2-trifluoro-ethyl)-8H-pyrido[2,3-d]pyrimidin-7-one] | 435 nM | 1010 nM | 317 nM | 2000 nM | 250 nM |
| CCCn1c(=O)ccc2cnc(Nc3ccc(OC)c(F)c3)nc21 [Example 338, 2-(3-Fluoro-4-methoxy-phenylamino)-8-propyl-8H-pyrido[2,3-d]pyrimidin-7-one] | 570 nM | 340 nM | 170 nM | 270 nM | 48 nM |
| CCCCn1c(=O)ccc2cnc(Nc3ccc(I)c(Cl)c3)nc21 [Example 398, 8-Butyl-2-(3-chloro-4-iodo-phenylamino)-8H-pyrido[2,3-d]pyrimidin-7-one] | 420 nM | 1400 nM | 350 nM | 230 nM | 88 nM |
| CCC(CC)n1c(=O)ccc2cnc(Nc3ccc4[nH]c(=O)[nH]c4c3)nc21 [Example 493, 8-(1-Ethyl-propyl)-2-(2-oxo-2,3-dihydro-1H-benzimidazol-5-ylamino)-8H-pyrido[2,3-d]pyrimidin-7-one] | 14.5 nM | 50.5 nM | 12 nM | 25 nM | 8.7 nM |
| CCC(CC)n1c(=O)ccc2cnc(Nc3cccc(I)c3)nc21 [Example 490, 8-(1-Ethyl-propyl)-2-(3-iodo-phenylamino)-8H-pyrido[2,3-d]pyrimidin-7-one] | 86.7 nM | 753 nM | 79.7 nM | 350 nM | 49.2 nM |
| CCCn1c(=O)ccc2cnc(Nc3ccc4c(c3)C(C)C(C)N4)nc21 (stereo not drawn) [Example 356, 2-(2,3-Dimethyl-2,3-dihydro-1H-indol-5-ylamino)-8-propyl-8H-pyrido[2,3-d]pyrimidin-7-one] | 410 nM | 470 nM | 510 nM | 290 nM | 61 nM |
| O=c1ccc2cnc(Nc3ccc4[nH]ccc4c3)nc2n1C1CCCC1 [Example 528, 8-Cyclopentyl-2-(1H-indol-5-ylamino)-8H-pyrido[2,3-d]pyrimidin-7-one] | 34.5 nM | 74 nM | 46.5 nM | 12.7 nM | 36.3 nM |
| CC(C)n1c(=O)ccc2cnc(Nc3cccc(S(N)(=O)=O)c3)nc21 [Example 430, 3-(8-Isopropyl-7-oxo-7,8-dihydro-pyrido[2,3-d]pyrimidin-2-ylamino)-benzenesulfonamide] | 180 nM | 240 nM | 95 nM | 35 nM | 15 nM |
| CCn1c(=O)ccc2cnc(Nc3ccc4[nH]ccc4c3)nc21 [Example 621, 8-Ethyl-2-(1H-indol-5-ylamino)-8H-pyrido[2,3-d]pyrimidin-7-one] | 540 nM | 925 nM | 400 nM | 230 nM | 250 nM |
| CC(=O)Nc1cc(Nc2ncc3ccc(=O)n(C(C)C)c3n2)ccc1C [Example 440, N-[5-(8-Isopropyl-7-oxo-7,8-dihydro-pyrido[2,3-d]pyrimidin-2-ylamino)-2-methyl-phenyl]-acetamide] | 1400 nM | 1100 nM | 1500 nM | 150 nM | 440 nM |
| CCCn1c(=O)ccc2cnc(Nc3ccc(F)cc3F)nc21 [Example 321, 2-(2,4-Difluoro-phenylamino)-8-propyl-8H-pyrido[2,3-d]pyrimidin-7-one] | 1240 nM | 3160 nM | 1110 nM | 3640 nM | 648 nM |
| CCn1c(=O)ccc2cnc(Nc3ccc4[nH]nnc4c3)nc21 [Example 287, 2-(1H-Benzotriazol-5-ylamino)-8-ethyl-8H-pyrido[2,3-d]pyrimidin-7-one] | 350 nM | 365 nM | 147 nM | 810 nM | 81 nM |
